In ChEMBL document CHEMBL1125093, “Structure-activity relationships of 8-cycloalkyl-1,3-dipropylxanthines as antagonists of adenosine receptors” (J Med Chem, 1990) one finds Ki data, which are given here for 30 molecules.

Assay [1] deals with Adenosine receptor A1 (Rattus norvegicus) (UniProt P25099). Nature of the assay: Antagonist activity against adenosine A1 receptor in rat adipocytes.
In assay [2] the target is Adenosine receptor A2 (Homo sapiens). Put plainly: Antagonistic activity against adenosine A2 receptor in human platelets.

As usually defined, the Ki is a dissociation constant, usually derived from enzyme kinetics or from competition with a known ligand.

Molecules are shown by their SMILES.

Regarding `CCCn1c(=O)c2nc([C@H]3CC[C@H](CNC(C)=O)CC3)[nH]c2n(CCC)c1=O`, in assay [1], the Ki amounted to 8 nM.
For the molecule `CCCn1c(=O)c2nc(CC3CCCC3)[nH]c2n(CCC)c1=O`, the values for the inhibition constant Ki in assay [1] and in assay [2] were 69 nM and over 10 µM, respectively.
For the molecule `CCCNC(=O)C1CCC(c2nc3c([nH]2)c(=O)n(CCC)c(=O)n3CCC)CC1` (centres undefined), the Ki in assay [1] is 85 nM; in assay [2], over 3 µM.
For `CCCn1c(=O)c2nc(C3CCC(C(=O)OC)CC3)[nH]c2n(CCC)c1=O` (centres undefined), in that order: 130 nM and 0.56 µM.
As to `CCCn1c(=O)c2nc(NC3CCC3)[nH]c2n(CCC)c1=O`, the Ki was determined as 2.6 nM in assay [1] and 0.12 µM in assay [2].
Consider `CCCn1c(=O)c2nc(C3CCCC(NC(C)=O)C3)[nH]c2n(CCC)c1=O` (centres undefined), for which the inhibition constant (Ki) in assay [1] was 41 nM; in assay [2] it was 1 µM.
For `CCCn1c(=O)c2nc(C3=C(C(=O)O)CCC3)[nH]c2n(CCC)c1=O`, in that order: over 10000 nM and over 10 µM.
Molecule `CCCn1c(=O)c2nc(N3CCCC3)[nH]c2n(CCC)c1=O` gave an inhibitory constant (Ki) in assay [1] of 76 nM.
Still for that read-out and setting: to `CCCn1c(=O)c2[nH]c(C34CC5CC(CC(C5)C3)C4)nc2n(CCC)c1=O` belongs 82 nM.
`CCCn1c(=O)c2nc(NC3CCCC3)[nH]c2n(CCC)c1=O`: the inhibition constant Ki in assay [1] was 8 nM; in assay [2], 0.13 µM.
For the molecule `CCCn1c(=O)c2nc(N3CCCCC3)[nH]c2n(CCC)c1=O`, the results for the Ki in assay [1] and in assay [2] were 22 nM and 0.49 µM, respectively.
Consider `CCCn1c(=O)c2nc(C3CCC(CN)CC3)[nH]c2n(CCC)c1=O` (centres undefined), for which the affinity in assay [1], expressed as Ki, was 20 nM.
`CCCn1c(=O)c2nc(C3CCCC(N)C3)[nH]c2n(CCC)c1=O` (centres undefined): the Ki in assay [1] is 50 nM; in assay [2], over 10 µM.
On the same counts, the results for `CCCn1c(=O)c2nc(C3CC3C)[nH]c2n(CCC)c1=O` (centres undefined) are 11 nM and over 10 µM.
For `CCCn1c(=O)c2nc(C3CCC3C(=O)O)[nH]c2n(CCC)c1=O` (centres undefined), in that order: 660 nM and over 10 µM.
For `CCCn1c(=O)c2nc(NC3CCCCC3)[nH]c2n(CCC)c1=O`, in that order: 14 nM and 0.68 µM.
Consider `CCCn1c(=O)c2nc(C3CCC(C(=O)O)CC3)[nH]c2n(CCC)c1=O` (stereo in doubt; 1), for which the Ki in assay [1] was 430 nM; in assay [2], over 10 µM.
Take `CCCn1c(=O)c2nc(C3CCC(C(=O)O)CC3)[nH]c2n(CCC)c1=O` (stereo in doubt; 2): the inhibition constant (Ki) was found to be 59 nM in assay [1] and 1.5 µM in assay [2].
For the molecule `CCCn1c(=O)c2nc(C3CCCCC3C(=O)O)[nH]c2n(CCC)c1=O` (stereo in doubt; 3), the Ki was over 10000 nM in assay [1] and over 10 µM in assay [2].
With `CCCn1c(=O)c2nc(C3CCCCC3C(=O)O)[nH]c2n(CCC)c1=O` (stereo in doubt; 4), the inhibition constant (Ki) in assay [1] is over 3000 nM; in assay [2], over 3 µM.
The molecule `CCCn1c(=O)c2[nH]c(C3CCC(N)CC3)nc2n(CCC)c1=O` (stereo in doubt; 6) displayed a Ki in assay [1] of 90 nM.
In turn, `CCCn1c(=O)c2[nH]c(C3CCC(N)CC3)nc2n(CCC)c1=O` (stereo in doubt; 7) registered an inhibition constant (Ki) in assay [1] of 160 nM.
As to `CCCn1c(=O)c2nc(C3CCC(NC(C)=O)CC3)[nH]c2n(CCC)c1=O` (stereo in doubt; 9), the values for the Ki in assay [1] and in assay [2] were 12 nM and over 10 µM, respectively.
For `CCCn1c(=O)c2nc(C3CCC(NC(C)=O)CC3)[nH]c2n(CCC)c1=O` (stereo in doubt; 10), in that order: 70 nM and 1 µM.
As for `CCCn1c(=O)c2nc(C3CCC(C(=O)N(C)CCN(C)C)CC3)[nH]c2n(CCC)c1=O` (stereo in doubt; 14), the Ki in assay [1] stood at 17 nM; in assay [2] it was 0.26 µM.
`CCCn1c(=O)c2nc(C3CCC(C(=O)N(C)CCN(C)C)CC3)[nH]c2n(CCC)c1=O` (stereo in doubt; 15): the Ki in assay [1] was 85 nM; in assay [2], 0.45 µM.
As for `CCCn1c(=O)c2nc(C3CCCC3C(=O)O)[nH]c2n(CCC)c1=O` (stereo in doubt; 17), the Ki in assay [1] was 140 nM; in assay [2], over 10 µM.
On the same counts, the results for `CCCn1c(=O)c2nc(C3CCCC3C(=O)N(C)CCN(C)C)[nH]c2n(CCC)c1=O` (stereo in doubt; 19) are over 3000 nM and over 3 µM.
Consider `CCCn1c(=O)c2nc(C3CCCC3C(=O)N(C)CCN(C)C)[nH]c2n(CCC)c1=O` (stereo in doubt; 20), for which the Ki in assay [1] was 53 nM; in assay [2] it was over 10 µM.
For `CCCn1c(=O)c2nc(C3CCCC3C(=O)O)[nH]c2n(CCC)c1=O` (trans isomer), in that order: 100 nM and over 10 µM.
